# According to PMC11726677, “Eradication of Therapy-Resistant Cancer Stem Cells by Novel Telmisartan Derivatives” (Journal of Medicinal Chemistry, 2024):
# How the values were obtained:
# Caco2 cells = test: Caco2 permeability (bidirectional); assay type: in vitro ADME; conditions: pH 7.4, 10 μM; for Caco2 permeability Papp B–A: basolateral to apical
# Method: The medium was changed regularly and on day 20 the permeability study was performed. The monolayers were prepared by rinsing the apical and basolateral surfaces with Hanks Balanced Salt Solution (HBSS) twice at the desired pH and by incubating for 40 min to stabilize the physiological parameters. […] The compounds were diluted with buffer to a concentration of 10 μM (final DMSO concentration ≤1%) and added to the apical or basolateral sides of the cell monolayer. Compound permeability was assessed in duplicates and molecules of known permeability characteristics were used as controls (antipyrine, atenolol, talinolol, and estrone 3-sulfate). To calculate Papp, compound appearance was measured using LC–MS/MS. The efflux ratio was determined for bidirectional assays.
# [1] = system: IGROV-1 SP cells (ABCB1+); test: SP analysis (DCV, flow cytometry) in IGROV-1 SP cells; assay type: cell-based, human; conditions: 10 μM
# Text: (§1) In recent studies, we described the side population (SP) phenotype as a marker that defines a heterogeneous cellular compartment with stem cell-characteristics in various cancer cell lines derived from solid tumors, such as ovarian cancer, breast cancer, and lung cancer.[26],[27]
# DU145-DR cells = test: Chemosensitizing to docetaxel: metabolic activity of DU145-DR cells (MTT); assay type: cell-based, human; conditions: compound 10 μM + DTX 12.5 nM, 72 h
# Method: (§2) The chemosensitizing efficacy was investigated in the ovarian and prostate cancer cell lines using the above-described metabolic activity assay. Paclitaxel (PTX) served as a reference (CTR) in A2780 V SP and IGROV-1 SP cells and docetaxel (DTX) in PC3-DR and D145-DR cells.
# (§3) COS-7 (2 × 10^3 cells per well), IGROV-1 SP (2.5 × 10^3 cells per well), A2780 V SP (1.5 × 10^3 cells per well), PC3-DR (4 × 10^3 cells per well), and DU145-DR (3 × 10^3 cells per well) cells were seeded in 96-well plates in triplicates and after 24 h, the compounds were added at the respective concentrations. K562-R and K562 cells (2 × 10^4 cells per well), were treated with the compounds 2 h after seeding. […] A modified MTT colorimetric assay (EZ4U kit, Biomedica) was used to determine the metabolic activity of the tested cells, according to the manufacturer’s instructions. Absorbance was measured and the optical density of the respective FCS-containing medium and of the substrate was subtracted to exclude nonspecific staining. Metabolic activity in the absence of the compounds (CTR, DMSO) was set to 100% as reference.
# [2] = system: primary human CML patient samples; test: Colony forming cell (CFC) assay, primary CML patient samples; assay type: cell-based; conditions: together with 1 μM of imatinib, once at the beginning of the 14 day assay; compound 10 μM
# Text: Frozen peripheral blood mononuclear cells (PBMC) from TKI naïve CML patients and healthy controls were used for the CFC assay as described previously.[46] Briefly, thawed cells were resuspended a semisolid medium (Enriched MethocCult H4435, Stem Cell Technologies) supplemented with the respective compounds and cultured in small culture dishes for 2 weeks. Colonies were counted using an inverted microscope.
# K562-R cells [3] = test: Metabolic activity of K562-R cells, compounds alone (modified MTT assay); assay type: cell-based, human; conditions: 10 μM, 72 h, without imatinib; vehicle control = 100%
# Method: (§4) The potential reduction in cell viability was determined using the modified MTT assay.
# First, the compounds (10 μM) were applied alone to evaluate their effects per se.
# as §3
# DU145-DR cells (ABCB1+) = test: SP analysis (DCV, flow cytometry) in DU145-DR cells; assay type: cell-based, human; conditions: 10 μM
# Text: as §1
# [4] = Hepatocyte stability, mouse; assay type: in vitro ADME; conditions: for half-life at 1 h, 1 µM / hepatocyte CLint at 1 h, 1 µM: mouse, cryopreserved mouse hepatocytes; for half-life at 1 h, 1 µM: read-out: hepatocytic stability mouse t1/2; for hepatocyte CLint at 1 h, 1 µM: after 60 min in MH, read-out: hepatocytic stability mouse, CLint
# Method: (§5) Cryopreserved hepatocytes (human and mouse) were used to analyze the stability of the compounds. Hepatocytes (0.5 × 10^6 cells/mL in Williams E medium supplemented with 2 mM L-glutamine and 25 mM N-2-hydroxyethylpiperazin-Ń-ethanesulfonic acid (HEPES)) were preincubated at 37 °C. […] At the appropriate time points, the reactions were stopped by transferring into acetonitrile. After protein precipitation by centrifugation at 3000 rpm for 20 min at 4 °C, the sample supernatants were analyzed by LC–MS/MS analysis (control compounds were included). The elimination rate constant was determined from the ratio of the ln peak area to time. Half-life (t1/2) and intrinsic clearance (CLint) were calculated using the appropriate formulas.
# [5] = Hepatocyte stability, human; assay type: in vitro ADME; conditions: for half-life at 1 h, 1 µM / hepatocyte CLint at 1 h, 1 µM: human, cryopreserved human hepatocytes; for half-life at 1 h, 1 µM: read-out: hepatocytic stability human t1/2; for hepatocyte CLint at 1 h, 1 µM: after 60 min in HH, read-out: hepatocytic stability human, CLint
# Method: as §5
# [6] = molecular target: ABCB1 transporter in K562-R cells (Homo sapiens, UniProt P08183); test: Side population (SP) analysis, DCV staining, flow cytometry; conditions: 10 μM
# Chain of ABCB1 transporter in K562-R cells (P08183 whole entry): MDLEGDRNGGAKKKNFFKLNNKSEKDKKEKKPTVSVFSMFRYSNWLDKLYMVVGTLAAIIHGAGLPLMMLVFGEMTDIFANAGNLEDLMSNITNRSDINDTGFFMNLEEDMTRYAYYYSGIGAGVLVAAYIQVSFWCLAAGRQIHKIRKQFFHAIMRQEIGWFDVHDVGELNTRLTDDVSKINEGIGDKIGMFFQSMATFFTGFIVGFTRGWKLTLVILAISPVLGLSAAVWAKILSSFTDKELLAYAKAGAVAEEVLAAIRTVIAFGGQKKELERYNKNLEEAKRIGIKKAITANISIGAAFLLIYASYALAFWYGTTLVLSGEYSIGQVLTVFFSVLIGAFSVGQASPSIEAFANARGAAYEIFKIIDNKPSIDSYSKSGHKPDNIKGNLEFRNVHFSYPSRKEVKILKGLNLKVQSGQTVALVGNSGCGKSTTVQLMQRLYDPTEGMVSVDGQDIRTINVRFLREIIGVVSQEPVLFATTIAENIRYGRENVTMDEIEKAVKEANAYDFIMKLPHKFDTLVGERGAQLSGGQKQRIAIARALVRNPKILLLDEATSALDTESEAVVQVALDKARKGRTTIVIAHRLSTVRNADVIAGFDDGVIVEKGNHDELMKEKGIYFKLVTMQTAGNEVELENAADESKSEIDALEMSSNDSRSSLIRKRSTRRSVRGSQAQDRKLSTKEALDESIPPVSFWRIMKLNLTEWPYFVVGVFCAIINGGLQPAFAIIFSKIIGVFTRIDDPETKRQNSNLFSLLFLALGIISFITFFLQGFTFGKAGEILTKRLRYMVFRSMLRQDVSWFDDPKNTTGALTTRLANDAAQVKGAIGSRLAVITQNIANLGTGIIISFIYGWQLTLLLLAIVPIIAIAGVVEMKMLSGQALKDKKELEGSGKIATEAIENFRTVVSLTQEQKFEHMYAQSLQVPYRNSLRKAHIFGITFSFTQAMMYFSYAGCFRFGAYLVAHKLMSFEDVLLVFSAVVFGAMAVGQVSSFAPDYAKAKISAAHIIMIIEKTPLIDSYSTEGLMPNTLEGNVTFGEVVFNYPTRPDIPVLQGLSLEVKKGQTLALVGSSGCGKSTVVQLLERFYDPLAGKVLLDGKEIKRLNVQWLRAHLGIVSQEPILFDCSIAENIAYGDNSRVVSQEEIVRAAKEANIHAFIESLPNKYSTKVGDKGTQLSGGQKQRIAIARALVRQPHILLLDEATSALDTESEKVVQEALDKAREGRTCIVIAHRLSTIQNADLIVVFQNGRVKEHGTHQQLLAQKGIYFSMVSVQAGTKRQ
# Method: SP analyses were performed as previously described[45] on a LSRFortessa flow cytometer (BD Biosciences, Vienna, Austria). Briefly, 1 × 10^6 cells/mL were stained with 10 μM Vybrant DyeCycleTM Violet (DCV; Molecular Probes, Eugene, OR) in the presence or absence of the investigated compounds for 90 min at 37 °C. […] Subsequently, the cells were washed and immediately analyzed using flow cytometry. The FlowJo 9.6 software was used for data analyses (Tree Star Software, Ashland, CA).
# [7] = Microsomal metabolic stability, mouse; assay type: in vitro ADME; conditions: for metabolic stability Mouse, % of compound remaining: after 30 min in MLM, 1 μM; for half-life at 1 µM: mouse, pooled mouse liver microsomes, pH 7.4, MLM, read-out: metabolic stability Mouse t1/2
# Method: (§6) The stability of the compounds was assessed in pooled human and mouse liver microsomes (final protein concentration 0.5 mg/mL). […] At the appropriate time points, the reactions were stopped by transferring into acetonitrile. After protein precipitation, by centrifugation at 3000 rpm for 20 min at 4 °C, the sample supernatants were analyzed using LC–MS/MS analysis (control compounds were included). The elimination rate constant was determined from the ratio of the ln peak area to time. Half-life (t1/2) and intrinsic clearance (CLint) were calculated using the appropriate formulas.
# [8] = system: A2780 V SP cells (ABCB1+); test: SP analysis (DCV, flow cytometry) in A2780 V SP cells; assay type: cell-based, human; conditions: 10 μM
# Text: as §1
# PC3-DR cells = test: Chemosensitizing to docetaxel: metabolic activity of PC3-DR cells (MTT); assay type: cell-based, human; conditions: compound 10 μM + DTX 12.5 nM, 72 h
# Method: as §2, §3
# PC3-DR cells (ABCB1+) = test: SP analysis (DCV, flow cytometry) in PC3-DR cells; assay type: cell-based, human; conditions: 10 μM
# Text: as §1
# K562-R cells [9] = test: Chemosensitizing: metabolic activity of K562-R cells cotreated with imatinib (modified MTT assay); assay type: cell-based, human; conditions: for chemosensitizing effect, concentration-dependent analysis: 0.5–8 μM (transporter inhibitors 10 to 0.5 μM); for rate of imatinib-triggered cell death: at 10 μM; for metabolic activity of K562-R cells, combination with imatinib: compound 10 μM + imatinib 1 μM
# Method: as §4
# conc. 10 to 0.5 μM) over 72 h (Figure 3D).
# as §3
# A549 cells (ABCC1+) = test: SP analysis (DCV, flow cytometry) in A549 cells; assay type: cell-based, human; conditions: A549, 10 μM
# Text: as §1
# [10] = Turbidimetric aqueous solubility; assay type: physicochemical; conditions: phosphate buffered saline, estimated precipitation range, PBS pH 7.4, 37 °C
# [11] = Microsomal metabolic stability, human; assay type: in vitro ADME; conditions: for metabolic stability Human, % of compound remaining: after 30 min in HLM, 1 μM; for half-life at 1 µM: human, pooled human liver microsomes, pH 7.4, HLM, read-out: metabolic stability Human t1/2
# Method: as §6
SMILES,Caco2 permeability Papp B–A (Caco2 cells),effect on SP phenotype [1],chemosensitizing to DTX (antimetabolic activity) (DU145-DR cells),number of colonies (CFC) [2],"metabolic activity of K562-R cells, compound alone (K562-R cells [3])",effect on SP phenotype (DU145-DR cells (ABCB1+)),"half-life at 1 h, 1 µM ([4]; MH)","hepatocyte CLint at 1 h, 1 µM [4]","half-life at 1 h, 1 µM ([5]; HH)","hepatocyte CLint at 1 h, 1 µM [5]",effect on SP phenotype / ABCB1 activity [6],"metabolic stability Mouse, % of compound remaining [7]",half-life at 1 µM [7],effect on SP phenotype [8],chemosensitizing to DTX (antimetabolic activity) (PC3-DR cells),effect on SP phenotype (PC3-DR cells (ABCB1+)),"chemosensitizing effect, concentration-dependent analysis (K562-R cells [9]; K562-R, + imatinib 1 μM, 72 h)",rate of imatinib-triggered cell death (K562-R cells [9]; K562-R),"metabolic activity of K562-R cells, combination with imatinib (K562-R cells [9]; 72 h)",effect on SP phenotype (A549 cells (ABCC1+)),other results
"CCCc1nc2c(C)cc(-c3nc4ccccc4n3C)cc2n1Cc1ccc(-c2ccccc2C(=O)OC)cc1 [7b, Methyl 4′-((1,7′-dimethyl-2′-propyl-1H,3′H-[2,5′-bibenzo[d]imidazole]-3′-yl)methyl)-[1,1′-biphenyl]-2-carboxylate]",0.2 10^–6 cms^–1,eliminated the SP phenotype,produced the same effects as 5c and 6c,significantly reduced the number of colonies,inactive,eliminated the SP phenotype,13.8 min,101 µL/min/1e6 cells,18.4 min,75.2 µL/min/1e6 cells,completely repressed the SP phenotype,3%,6 min,eliminated the SP phenotype,only marginally increased the antimetabolic activity of DTX,eliminated the SP phenotype,strongly sensitized the cells to imatinib therapy,> 85%,8–24%,eliminated the SP phenotype,"Caco2 permeability Papp A–B (Caco2 cells; apical to basolateral): 0.1 10^–6 cms^–1; solubility at 2 h [10]: < 6.5 µM; metabolic stability Human, % of compound remaining [11]: 26.3%; half-life at 1 µM [11]: 16.2 min"
"CCCc1nc2c(C)cc(-c3nc4ccccc4n3C)cc2n1Cc1ccc(-c2ccccc2C(N)=O)cc1 [7c, 4′-((1,7′-Dimethyl-2′-propyl-1H,3′H-[2,5′-bibenzo[d]imidazole]-3′-yl)methyl)-[1,1′-biphenyl]-2-carboxamide]",30.8 10^–6 cms^–1,eliminated the SP phenotype,most active chemosensitizer,significantly reduced the number of colonies,inactive,eliminated the SP phenotype,44.9 min,30.9 µL/min/1e6 cells,100 min,13.8 µL/min/1e6 cells,completely repressed the SP phenotype,13.3%,8.8 min,eliminated the SP phenotype,most active chemosensitizer,eliminated the SP phenotype,strongly sensitized the cells to imatinib therapy,> 85%,8–24%,eliminated the SP phenotype,"clearance class ([4]; MH): high clearance; clearance class ([5]; HH): medium clearance; EC50 (K562-R cells [9]; K562-R, + imatinib 1 μM, 72 h, read-out: SC50 (drug concentration eliciting 50% of the maximum sensitizing effect)): 1850 nM; solubility at 2 h [10]: < 6.5 µM; metabolic stability Human, % of compound remaining [11]: 58.1%; half-life at 1 µM [11]: 45.1 min"
